{
  "source": "patent US20040043940A1",
  "about": "“Use of ectoin or ectoin derivatives for protecting stress proteins in the skin” (priority 2000, published 2004)",
  "test_system": "HSP 72/73",
  "experiment": "Heat-shock induction of HSP 72/73 stress proteins in primary human keratinocytes (immunofluorescence)",
  "assay_type": "cell-based",
  "method": "This was ascertained by spreading primary human keratinocytes on microscopic slides and cultivating them over a period of 3 days at 37° C. in KGM 2 medium (Cell Systems). The human keratinocytes were incubated to a confluence of approximately 60% and part of the culture was then treated with 1% ectoin based on the supernatant of the culture medium. The untreated portion of the culture served as control. Following treatment, the human keratinocytes were incubated for a further 16 hours at 37° C. The cultures were then subjected to heat shock by raising the temperature quickly from 37° C. to 44° C. The experiments were carried out by the method proposed by Holland et al in J. Invest Dermatol. (1993), 101: 196-199. Following this heat-shock treatment, incubation was carried out at 37° C. for a further 2 hours. The cells were then fixed. Fixing was carried out in 3 stages:\nfixing solution A (1% CH3COOH/40% ethanol in deionized water v/v, 4° C.), 5 min,\nfixing solution B (96% ethanol in deionized water v/v, 4° C.), 5 min,\nfixing solution A, 5 min.\nThe stress proteins produced were stained by immunofluorescence, which process involved the following steps:\nblockage of non-specific bonding sites with a blocking agent (10% BSA in phosphate buffer): 45 min, 37° C.,\nincubation with the primary antibody anti HSP 72/73 (1:200 dilution in phosphate buffer): 45 min, 37° C.,\nincubation with the FITC-conjugated secondary antibody goat anti mouse (1:200 dilution in phosphate buffer): 45 min, 37° C.,\ncovering of the specimens with fluorescent covering medium and slide cover glasses.\nThe stess proteins were determined quantitatively as HSP 72/73 under a microscope (BX40, filter: WB, burner: U-RFL-T, Olympus).",
  "data": [
    {"smiles": "CC1=N[C@H](C(=O)O)CCN1", "note": "[ectoin, (S)-1,4,5,6-tetrahydro-2-methyl-4-pyrimidinecarboxylic acid]", "values": [
      {"measurement": "protection of human skin cells against stress factors", "setting": "in vitro, ectoin-treated versus untreated skin cells", "value": "significantly better"},
      {"measurement": "induction of HSP 72/73 stress proteins", "setting": "primary human keratinocytes, 1% ectoin pretreatment 16 hours, heat shock 37° C. to 44° C., compared with untreated cultures", "value": "significantly faster"},
      {"measurement": "period until HSP 72/73 concentration maximum", "setting": "primary human keratinocytes, 1% ectoin pretreatment, heat shock 44° C., untreated cells 60 minutes", "value": 30, "unit": "min"}
    ]}
  ]
}
